In article PMC8296573, “Synthesis and Biological Evaluation of Fingolimod Derivatives as Antibacterial Agents” (ACS Omega, 2021):
In brackets after ≈: the same amount, converted by molar mass. Like-named read-outs stand apart in the source and are kept apart here.

Experiments:
S. aureus ATCC 25923 [1] = assay: Antibacterial activity, post-exposure on preformed 18-h-old biofilms; format: cell-based, Staphylococcus aureus; details: ± SD; for inhibition at 25 µM / inhibition at 50 µM / inhibition at 100 µM / inhibition at 200 µM: Staphylococcus aureus; for inhibition at 25 µM: ATCC25923, 25 µM; for inhibition at 50 µM: ATCC25923, 50 µM; for inhibition at 100 µM: ATCC25923, 100 µM; for inhibition at 200 µM: ATCC25923, 200 µM
Procedure, shortened: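 Compounds were applied to preformed 18-h biofilms after medium change and left 24 h. Read-outs: planktonic OD plus resazurin fluorescence (20 μM), biofilm metabolic activity by resazurin 30 min at 37 °C, then biomass by crystal violet absorbance at 595 nm after ethanol fixation.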

P. aeruginosa ATCC 9027 = assay: Antibacterial activity, pre-exposure; format: cell-based, Pseudomonas aeruginosa; details: for Average inhibition %, biofilms viability / Average inhibition %, planktonic cells viability / inhibition at 50 µM / inhibition at 100 µM / inhibition at 150 µM / inhibition at 200 µM: P. aeruginosa ATCC 9027, pre-exposure, ± SD; for inhibition at 50 µM / inhibition at 100 µM / inhibition at 150 µM / inhibition at 200 µM: Pseudomonas aeruginosa, ATCC9027
Procedure, shortened: (§1)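 Pre-exposure format: compound and bacterial culture co-incubated 18 h, 37 °C, aerobic, 220 rpm. Planktonic: turbidity (OD) plus resazurin viability, 20 μM final. Biofilm: PBS wash, 20 μM resazurin, then ethanol fixation and crystal violet staining, A595.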

S. aureus ATCC 25923 [2] = assay: Antibacterial activity, pre-exposure (planktonic cells and biofilm formation); format: cell-based, Staphylococcus aureus; details: for MIC / inhibition at 5 µM / inhibition at 10 µM / inhibition at 15 µM / inhibition at 25 µM: Staphylococcus aureus, ATCC25923; for inhibition at 5 µM / inhibition at 10 µM / inhibition at 15 µM / inhibition at 25 µM / Average inhibition %, biofilms viability / Average inhibition %, planktonic cells viability: pre-exposure, ± SD
Procedure, shortened: as §1

A. baumannii NCTC 13423 = assay: Antibacterial activity, pre-exposure; format: cell-based, Acinetobacter baumannii; details: for Average inhibition %, biofilms viability / Average inhibition %, planktonic cells viability / inhibition at 10 µM / inhibition at 15 µM / inhibition at 25 µM / inhibition at 50 µM: A. baumannii NCTC 13423, pre-exposure, ± SD; for inhibition at 10 µM / inhibition at 15 µM / inhibition at 25 µM / inhibition at 50 µM: Acinetobacter baumannii, NCTC13423
Procedure, shortened: as §1

[3] = read-out: Average inhibition %, biofilms biomass
[4] = read-out: Average inhibition %, planktonic cells turbidity
[5] = 50 µM, read-out: Average inhibition %, biofilms biomass
[6] = 50 µM, read-out: Average inhibition %, planktonic cells turbidity
[7] = 10 µM, read-out: Average inhibition %, biofilms biomass
[8] = 10 µM, read-out: Average inhibition %, planktonic cells turbidity
[9] = 15 µM, read-out: Average inhibition %, biofilms biomass
[10] = 15 µM, read-out: Average inhibition %, planktonic cells turbidity
[11] = 25 µM, read-out: Average inhibition %, biofilms biomass
[12] = 25 µM, read-out: Average inhibition %, planktonic cells turbidity

With `CCCCCCCCc1ccc2cc(CC(N)(CO)CO)ccc2c1` [Compound 79, 2-Amino-2-[(6-octylnaphthalen-2-yl)methyl]propane-1,3-diol] the “Average inhibition %, biofilms viability” value (S. aureus ATCC 25923 [1]; 25 µM) was 15.4 ± 3.3%, the “Average inhibition %, planktonic cells viability” value (S. aureus ATCC 25923 [1]; 25 µM) was 0.3 ± 0.6% and the “Average inhibition %, biofilms viability” value (S. aureus ATCC 25923 [1]; 50 µM) was 23.3 ± 4.3%. For the same molecule, the “Average inhibition %, planktonic cells viability” value (S. aureus ATCC 25923 [1]; 50 µM) was 0 ± 0%, the “Average inhibition %, biofilms viability” value (S. aureus ATCC 25923 [1]; 100 µM) was 28.7 ± 6.3% and the “Average inhibition %, planktonic cells viability” value (S. aureus ATCC 25923 [1]; 100 µM) was 23.6 ± 15.5%. For the same molecule, the “Average inhibition %, biofilms viability” value (S. aureus ATCC 25923 [1]; 200 µM) was 28.8 ± 6.5%, the “Average inhibition %, planktonic cells viability” value (S. aureus ATCC 25923 [1]; 200 µM) was 57 ± 23.8% and the inhibition at 25 µM (S. aureus ATCC 25923 [1]; [3]) was 21.5 ± 4.7%. For the same molecule, the inhibition at 25 µM (S. aureus ATCC 25923 [1]; [4]) was 16.1 ± 25.9%, the inhibition at 50 µM (S. aureus ATCC 25923 [1]; [3]) was 29.7 ± 10.3% and the inhibition at 50 µM (S. aureus ATCC 25923 [1]; [4]) was 12.4 ± 8.3%. For the same molecule, the inhibition at 100 µM (S. aureus ATCC 25923 [1]; [3]) was 36.6 ± 6.4%, the inhibition at 100 µM (S. aureus ATCC 25923 [1]; [4]) was 25.7 ± 16.3% and the inhibition at 200 µM (S. aureus ATCC 25923 [1]; [3]) was 43.1 ± 20.9%. The inhibition at 200 µM (S. aureus ATCC 25923 [1]; [4]) was 31.5 ± 11.1%, the “Average inhibition %, biofilms viability” value (P. aeruginosa ATCC 9027; 50 µM) was 0 ± 0% and the “Average inhibition %, planktonic cells viability” value (P. aeruginosa ATCC 9027; 50 µM) was 3.9 ± 3.6%. For the same molecule, the “Average inhibition %, biofilms viability” value (P. aeruginosa ATCC 9027; 100 µM) was 0 ± 0%, the “Average inhibition %, planktonic cells viability” value (P. aeruginosa ATCC 9027; 100 µM) was 1.9 ± 2.3% and the “Average inhibition %, biofilms viability” value (P. aeruginosa ATCC 9027; 150 µM) was 0.5 ± 0.9%. For the same molecule, the “Average inhibition %, planktonic cells viability” value (P. aeruginosa ATCC 9027; 150 µM) was 4.2 ± 7.4%, the “Average inhibition %, biofilms viability” value (P. aeruginosa ATCC 9027; 200 µM) was 2.1 ± 3.6% and the “Average inhibition %, planktonic cells viability” value (P. aeruginosa ATCC 9027; 200 µM) was 7.6 ± 13.1%. For the same molecule, the inhibition at 50 µM (P. aeruginosa ATCC 9027; [5]) was 1.2 ± 1.5%, the inhibition at 50 µM (P. aeruginosa ATCC 9027; [6]) was 23.6 ± 9% and the inhibition at 100 µM (P. aeruginosa ATCC 9027; 100 µM, read-out: Average inhibition %, biofilms biomass) was 3.6 ± 4.7%. The inhibition at 100 µM (P. aeruginosa ATCC 9027; 100 µM, read-out: Average inhibition %, planktonic cells turbidity) was 23 ± 3.8%, the inhibition at 150 µM (P. aeruginosa ATCC 9027; 150 µM, read-out: Average inhibition %, biofilms biomass) was 6.1 ± 5.3% and the inhibition at 150 µM (P. aeruginosa ATCC 9027; 150 µM, read-out: Average inhibition %, planktonic cells turbidity) was 28 ± 2.4%. The inhibition at 200 µM (P. aeruginosa ATCC 9027; 200 µM, read-out: Average inhibition %, biofilms biomass) was 0%, the inhibition at 200 µM (P. aeruginosa ATCC 9027; 200 µM, read-out: Average inhibition %, planktonic cells turbidity) was 25 ± 2.8% and the “MIC P. aeruginosa ATCC 9027” value (P. aeruginosa ATCC 9027; pre-exposure, Inactive = no activity up to 200 μM, > = some inhibition but no MIC reached) was “Inactive”. It also gave an MIC (S. aureus ATCC 25923 [2]; lowest concentration with no visible growth (>90% inhibition of turbidity and viability of planktonic cells), 18 h, read-out: MIC S. aureus ATCC 25923) of 10 µM (≈ 3.44 µg/mL), an inhibition at 5 µM (S. aureus ATCC 25923 [2]; 5 µM, read-out: Average inhibition %, biofilms biomass) of 37.5 ± 32.5% and an inhibition at 5 µM (S. aureus ATCC 25923 [2]; 5 µM, read-out: Average inhibition %, planktonic cells turbidity) of 15.2 ± 17.2%. It also gave an inhibition at 10 µM (S. aureus ATCC 25923 [2]; [7]) of 91.3 ± 5.8%, an inhibition at 10 µM (S. aureus ATCC 25923 [2]; [8]) of 98.7 ± 0.9% and an inhibition at 15 µM (S. aureus ATCC 25923 [2]; [9]) of 92.1 ± 4.9%. The inhibition at 15 µM (S. aureus ATCC 25923 [2]; [10]) was 98.7 ± 1%, the inhibition at 25 µM (S. aureus ATCC 25923 [2]; [11]) was 92.5 ± 4.2% and the inhibition at 25 µM (S. aureus ATCC 25923 [2]; [12]) was 98.5 ± 1%. The MIC (S. aureus ATCC 25923 [2]; read-out: MIC (S. aureus)) was 10 µM (≈ 3.44 µg/mL), the “Average inhibition %, biofilms viability” value (S. aureus ATCC 25923 [2]; 5 µM) was 28 ± 2.7% and the “Average inhibition %, planktonic cells viability” value (S. aureus ATCC 25923 [2]; 5 µM) was 26.3 ± 24.3%. The “Average inhibition %, biofilms viability” value (S. aureus ATCC 25923 [2]; 10 µM) was 98.1 ± 0.5%, the “Average inhibition %, planktonic cells viability” value (S. aureus ATCC 25923 [2]; 10 µM) was 99.8 ± 0% and the “Average inhibition %, biofilms viability” value (S. aureus ATCC 25923 [2]; 15 µM) was 99.3 ± 0.2%. The “Average inhibition %, planktonic cells viability” value (S. aureus ATCC 25923 [2]; 15 µM) was 99.8 ± 0.1%, the “Average inhibition %, biofilms viability” value (S. aureus ATCC 25923 [2]; 25 µM) was 99.2 ± 0.3% and the “Average inhibition %, planktonic cells viability” value (S. aureus ATCC 25923 [2]; 25 µM) was 99.9 ± 0.2%. For the same molecule, the “Average inhibition %, biofilms viability” value (A. baumannii NCTC 13423; 10 µM) was 0.3 ± 0.6%, the “Average inhibition %, planktonic cells viability” value (A. baumannii NCTC 13423; 10 µM) was 4.7 ± 4.7% and the “Average inhibition %, biofilms viability” value (A. baumannii NCTC 13423; 15 µM) was 0.7 ± 0.6%. The “Average inhibition %, planktonic cells viability” value (A. baumannii NCTC 13423; 15 µM) was 4.2 ± 4.8%, the “Average inhibition %, biofilms viability” value (A. baumannii NCTC 13423; 25 µM) was 1.2 ± 1.5% and the “Average inhibition %, planktonic cells viability” value (A. baumannii NCTC 13423; 25 µM) was 0 ± 0%. The “Average inhibition %, biofilms viability” value (A. baumannii NCTC 13423; 50 µM) was 6.5 ± 6.4%, the “Average inhibition %, planktonic cells viability” value (A. baumannii NCTC 13423; 50 µM) was 0 ± 0% and the inhibition at 10 µM (A. baumannii NCTC 13423; [7]) was 1.7 ± 3%. It also gave an inhibition at 10 µM (A. baumannii NCTC 13423; [8]) of 0%, an inhibition at 15 µM (A. baumannii NCTC 13423; [9]) of 3.3 ± 5.7% and an inhibition at 15 µM (A. baumannii NCTC 13423; [10]) of 0%. The inhibition at 25 µM (A. baumannii NCTC 13423; [11]) was 0.2 ± 0.4%, the inhibition at 25 µM (A. baumannii NCTC 13423; [12]) was 0% and the inhibition at 50 µM (A. baumannii NCTC 13423; [5]) was 3.3 ± 5.1%. For the same molecule, the inhibition at 50 µM (A. baumannii NCTC 13423; [6]) was 0.3 ± 0.6% and the “MIC A. baumannii NCTC 13423” value (A. baumannii NCTC 13423; pre-exposure, Inactive = no activity up to 50 μM, > = some inhibition but no MIC reached) was “Inactive”.
